Read-outs that look alike come from different tables or passages of the source.
Tests used:
[1] = molecular target: TnmS3 (Streptomyces sp. CB03234, UniProt A0A125SA29); assay: fluorescence quenching; assay type: binding
[2] = molecular target: TnmS1 (Streptomyces sp. CB03234, UniProt A0A125SA24); assay: fluorescence quenching; assay type: binding
[3] = molecular target: TnmS2 (Streptomyces sp. CB03234, UniProt A0A125SA26); assay: fluorescence quenching; assay type: binding
[4] = molecular target: (UniProt S2XVS8); assay: fluorescence quenching; assay type: binding, Streptomyces sp. HGB0020
Sequence of (UniProt S2XVS8) (S2XVS8 1-128): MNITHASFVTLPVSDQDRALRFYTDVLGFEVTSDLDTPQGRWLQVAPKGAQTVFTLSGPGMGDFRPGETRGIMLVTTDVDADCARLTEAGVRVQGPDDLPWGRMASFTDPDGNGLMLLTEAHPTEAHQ

[5] = molecular target: CBFG_04671 (Clostridium pacaense, UniProt A0ABV1D2N3); assay: fluorescence quenching; assay type: binding
[6] = molecular target: TnmS2 (Streptomyces sp. CB03234); assay: SEC
[7] = molecular target: TnmS1 (Streptomyces sp. CB03234); assay: SEC
[8] = molecular target: TnmS3 (Streptomyces sp. CB03234); assay: SEC
[9] = 20 mM MOPS pH 7.0, 28 °C, 2 μM protein, ligand in DMSO

Q: Which results are given for TNM C?
A: Kd [1, 9]: 215 ± 27 nM; Kd [2, 9]: 350 ± 41 nM; Kd [3, 9]: 361 ± 65 nM

Q: What does the source list for `COc1ccc2c(c1O)C(=O)c1c3c(cc(O)c1C2=O)[C@@]12O[C@@]1([C@@H](C)O)[C@H](C#C/C=C\C#C[C@H]2O)N3` [TNM A]?
A: Kd [1]: 108 ± 13 nM; Kd [4]: 164 ± 23 nM; Kd [5]: 855 ± 66 nM; Kd [2]: 163 ± 17 nM; Kd [3]: 246 ± 36 nM

Q: How did the stoichiometry N [6] turn out when TnmS2 (natural protein) was run?
A: 2

Q: Which results are given for `Cc1cc2nc3c(=O)[nH]c(=O)nc-3n(C[C@H](O)[C@H](O)[C@H](O)CO)c2cc1C` [riboflavin]?
A: Kd [1]: 1100 nM; Kd [2]: 84100 nM; Kd [3]: 59500 nM

Q: How did the stoichiometry N [7] turn out when TnmS1 (natural protein) was run?
A: 2

Q: TnmS3 (natural protein) was tested. Which stoichiometry N [8] did it give?
A: 2

— article PMC6208323 (Cell chemical biology, 2018)
